The values below are quoted from earlier work in patent US20190262453A1, “DESIGN AND COMPOSITION OF CELL-STABILIZED PHARMACEUTICAL FORMULATIONS” (THE REGENTS OF THE UNIVERSITY OF MICHIGAN, priority 2016, published 2019).

Values joined by “and” are separate entries in the source; they are usually repeats but may differ in a detail not shown here. Equal values may be shown once.

The conditions of the series: in vivo; cited from earlier work.
As a reminder, the Vd is a proportionality between amount in the body and measured concentration, not a real space. For the molecule `CN(C)CCC=C1c2ccccc2COc2ccccc21` [Doxepin], the Vd was 24 L/kg. Consider `Cc1ccc(-c2cc(C(F)(F)F)nn2-c2ccc(S(N)(=O)=O)cc2)cc1` [Celecoxib], for which the Vd is 6.12 L/kg. Take `O=[N+]([O-])OCC(CO[N+](=O)[O-])O[N+](=O)[O-]` [Nitroglycerin]: the Vd was 3.3 L/kg.

Turning to `CN(C)CC(c1ccc(O)cc1)C1(O)CCCCC1` (centres unmarked) [Desvenlafaxine], the volume of distribution (Vd) was 7.5 L/kg. As to `COc1c(C)c2c(c(O)c1C/C=C(\C)CCC(=O)O)C(=O)OC2` [Mycophenolate], the volume of distribution (Vd) is 3.8 L/kg. In the case of `CN1CCN(C2=Nc3cc(Cl)ccc3Nc3ccccc32)CC1` [Clozapine], the Vd is 5.4 L/kg. For `OCCN1CCN(CCCN2c3ccccc3Sc3ccc(C(F)(F)F)cc32)CC1` [Fluphenazine], the distribution volume (Vd) is 11 L/kg. `CCCCCc1cc(O)c2c(c1)OC(C)(C)[C@@H]1CCC(C)=C[C@@H]21` [Dronabinol]: the Vd was 8.9 L/kg. In the case of `Cc1nc2n(c(=O)c1CCN1CCC(c3noc4cc(F)ccc34)CC1)CCCC2O` (centres unmarked) [Paliperidone], the Vd was 9.1 L/kg. `CC/C(=C(\c1ccccc1)c1ccc(OCCN(C)C)cc1)c1ccccc1` [Tamoxifen]: the Vd is 55 L/kg. On to `CC(=O)[C@]1(O)Cc2c(O)c3c(c(O)c2[C@@H](O[C@H]2C[C@H](N)[C@H](O)[C@H](C)O2)C1)C(=O)c1ccccc1C3=O` [Idarubicin], for which the Vd was 24.7 L/kg.

Consider `CC[C@@H]([C@H](C)O)n1ncn(-c2ccc(N3CCN(c4ccc(OC[C@@H]5CO[C@@](Cn6cncn6)(c6ccc(F)cc6F)C5)cc4)CC3)cc2)c1=O` [Posaconazole], for which the Vd is 11.9 L/kg. `O=C(NCC1CCCCN1)c1cc(OCC(F)(F)F)ccc1OCC(F)(F)F` (centres unmarked) [Flecainide]: the volume of distribution (Vd) is 4.9 L/kg. Take `CNCC[C@H](Oc1cccc2ccccc12)c1cccs1` [Duloxetine]: the distribution volume (Vd) is 7 L/kg. As to `COc1cccc2c1C(=O)c1c(O)c3c(c(O)c1C2=O)C[C@@](O)(C(=O)CO)C[C@@H]3O[C@H]1C[C@H](N)[C@H](O)[C@H](C)O1` [Doxorubicin], the volume of distribution (Vd) was 682 L/kg.

Regarding `Nc1nc(=O)n([C@@H]2CS[C@H](CO)O2)cc1F` [Emtricitabine], the distribution volume (Vd) is 3.5 L/kg. For the molecule `O=C1CCc2ccc(OCCCCN3CCN(c4cccc(Cl)c4Cl)CC3)cc2N1` [Aripiprazole], the Vd is 4.9 L/kg.

`CC(=O)S[C@@H]1CC2=CC(=O)CC[C@]2(C)[C@H]2CC[C@@]3(C)[C@@H](CC[C@@]34CCC(=O)O4)[C@H]12` [Spironolactone]: the Vd was 10 L/kg.

Consider `CN(C)CCC(c1ccc(Cl)cc1)c1ccccn1` (centres unmarked) [Chlorpheniramine], for which the distribution volume (Vd) is 3.2 L/kg. As to `O=C1c2c(O)ccc(O)c2C(=O)c2c(NCCNCCO)ccc(NCCNCCO)c21` [Mitoxantrone], the volume of distribution (Vd) is 90 L/kg.

Turning to `OCCOCCN1CCN(C(c2ccccc2)c2ccc(Cl)cc2)CC1` (centres unmarked) [Hydroxyzine], the Vd is 19 L/kg and 16 L/kg. `CO[C@H]1C[C@@H]2CC[C@@H](C)[C@@](O)(O2)C(=O)C(=O)N2CCCC[C@H]2C(=O)O[C@H]([C@H](C)C[C@@H]2CC[C@@H](OC(=O)C(C)(CO)CO)[C@H](OC)C2)CC(=O)[C@H](C)/C=C(\C)[C@@H](O)[C@@H](OC)C(=O)[C@H](C)C[C@H](C)/C=C/C=C/C=C/1C` [Temsirolimus]: the distribution volume (Vd) was 3.3 L/kg. For `CCCN(CCC)CCc1cccc2c1CC(=O)N2` [Ropinirole], the distribution volume (Vd) was 7.5 L/kg.

For `OCCOCCN1CCN(C2=Nc3ccccc3Sc3ccccc32)CC1` [Quetiapine], the Vd was 10 L/kg. As for `O=C(C1CCCCC1)N1CC(=O)N2CCc3ccccc3C2C1` (centres unmarked) [Praziquantel], the Vd is 9.55 L/kg. In the case of `CC[C@]1(O)C[C@H]2CN(CCc3c([nH]c4ccccc34)[C@@](C(=O)OC)(c3cc4c(cc3OC)N(C=O)[C@H]3[C@@](O)(C(=O)OC)[C@H](OC(C)=O)[C@]5(CC)C=CCN6CC[C@]43[C@@H]65)C2)C1` [Vincristine], the volume of distribution (Vd) is 9.79 L/kg.
